From patent US9738684B2, “N-terminally modified linear and branched polyamine conjugated peptidomimetics as antimicrobials agents” (COUNCIL OF SCIENTIFIC & INDUSTRIAL RESEARCH, priority 2015, dated 2017)
Converted amounts (≈) assume the structure as drawn.

Assays:
S. aureus (ATCC 29213) = experiment: MIC, serial broth dilution; format: cell-based, Staphylococcus aureus; conditions: MHB, 18 h, 37° C.
Experimental: (§1) The peptidomimetics designed in present invention were evaluated as antibacterial therapeutics against a broad range of bacterial strains by broth microdilution method. The antibacterial activity of the peptidomimetics was reported in terms of the minimum inhibitory concentrations (MIC).
(§2) Following bacterial strains were used in this study: S. aureus (ATCC 29213), methicillin resistant S. aureus (ATCC 33591), Staphylococcus epidermidis (ATCC 12228), methicillin resistant Staphylococcus epidermidis(ATCC 51625), Enterococcus faecalis (ATCC 7080), Escherichia coli (ATCC 11775), and Acinetobacter baumannii (ATCC 19606). Antibacterial activity was evaluated using a modified serial broth dilution method in accordance with Clinical Laboratory Standard Institute guidelines [Methods for dilution antimicrobial susceptibility tests for bacteria that grow aerobically-7th ed. Approved standard M7-A7. Clinical and Laboratory Standards Institute, Wayne, Pa., Biochim. Biophys. Acta 1798:1864-1875, 2010.]. Briefly, the inoculums were prepared from mid-log phase bacterial cultures. Peptidomimetics were incubated with bacterial suspension in Muller Hinton broth media (10^5 CFU/mL) in 96 well microtitre plate. The plates were incubated overnight with agitation (200 rpm) at 37° C. After 18 h, absorbance was measured at 630 nm. Cultures without test peptidomimetics were used as positive control. Un-inoculated Mueller Hinton Broth (MHB) was used as negative control. Tests were carried out in duplicate on at least three different days. […] For comparison standard peptide antibiotics vancomycin (VAN) and polymyxin B (PMB) were also assayed under identical conditions (Table 2). […] Further, antibacterial activity of active peptidomimetics 1c and 1d were also evaluated against MRSA in presence of 25% v/v human serum as well as bovine serum.

[1] = system: methicillin resistant S. aureus (ATCC 33591); experiment: MIC, serial broth dilution; format: cell-based, Staphylococcus aureus; conditions: MHB, 18 h, 37° C.
Experimental: as §1, §2

[2] = system: Staphylococcus epidermidis (ATCC 12228); experiment: MIC, serial broth dilution; format: cell-based; conditions: MHB, 18 h, 37° C.
Experimental: as §1, §2

[3] = system: methicillin resistant Staphylococcus epidermidis (ATCC 51625); experiment: MIC, serial broth dilution; format: cell-based; conditions: MHB, 18 h, 37° C.
Experimental: as §1, §2

[4] = system: Escherichia coli (ATCC 11775); experiment: MIC, serial broth dilution; format: cell-based; set-up: MIC E. coli. (ATCC 11775): unit not given here; conditions: MHB, 18 h, 37° C.
Experimental: as §1, §2

[5] = system: human red blood cells (hRBC); experiment: Hemolytic activity; format: cell-based; conditions: 250 μg/mL, 1 h at 37° C.
Experimental: Hemolytic activity of the peptidomimetics was evaluated on human red blood cells (hRBC) as described previously with minor modifications [FEBS J, 273:4040-4054, 2006; Biochim Biophys Acta., 1798:1864-1875, 2010]. Briefly, 100 μL of fresh hRBC suspension 4% v/v in NaCl/Pi (35 mM phosphate buffer, 150 mM NaCl, pH 7.2) was placed in a 96-well plate. After incubation of the peptidomimetics (100 μL) in the hRBC suspension for 1 h at 37° C., the plates were centrifuged and supernatant (100 μL) was transferred to fresh 96-well plate. Absorbance was read at 540 nm using ELISA plate reader (Molecular Devices). Percent hemolysis was calculated using the following formula: % hemolysis=100[(A−A0)/(At−A0)]
Where, A represents absorbance of sample wells at 540 nm. Also A0 and At represents 0% and 100% hemolysis determined in NaCl/Pi and 1% Triton X-100, respectively (Table 2). […] Peptidomimetics 1e and 1f caused 31% and 30% hemolysis at 250 μg/mL. Peptidomimetics 2d, 2e and 2f caused significant hemolysis with 83%, 96% and 88% damage to hRBCs at […] respectively.

all the tested strains = experiment: Antibacterial activity; format: cell-based; conditions: series 2
Experimental: as §2

MRSA = experiment: Membrane depolarization with DiSC3(5) dye; format: cell-based, Staphylococcus aureus; conditions: up to the highest concentration tested
Experimental: For determination of membrane depolarizing ability of designed peptidomimetics, a membrane potential sensitive dye DiSC3(5) was used as described previously with minor modifications [Org Biomol. Chem. 10: 8326-8335, 2012; J. Am. Chem. Soc., 132: 18417-18428, 2010.]. Briefly, overnight grown MRSA was sub cultured into MHB for 2-3 h at 37° C. to obtain mid-log phase cultures. The cells were centrifuged at 4000 rpm for 10 min at 25° C., washed, and re-suspended into respiration buffer (5 mM HEPES, 20 mM glucose, pH 7.4) to obtain a diluted suspension of OD600˜0.05. Then DiSC3(5) [0.18 μM in DMSO], was added to 500 μL aliquotes of the re-suspended cells and allowed to stabilize for 1 h. Baseline fluorescence was acquired using a Edinburg F900 spectrofluorometer by excitation at 622 nm and emission at 670 nm in a 1 cm path length cuvette. Bandwidth of 5 nm was employed for excitation and emission. Subsequently, increasing concentrations of test peptidomimetics were added to the stabilized cells and the increase of fluorescence on account of the de-quenching of DiSC3(5) dye was measured after every 2 min to obtain the maximal depolarization. Increase in relative fluorescence unit (RFU) was plotted against increasing concentrations of different peptidomimetics or PMB. […] The increase in fluorescence for lipid tagged peptidomimetics was concentration dependent up to 9.9 μg/mL and henceforth, got saturated resulting into plateau like dose response curves. The experiment was repeated twice on two consecutive days and produced similar results.

[6] = system: Acinetobacter baumannii (ATCC 19606); experiment: MIC, serial broth dilution; format: cell-based; conditions: MHB, 18 h, 37° C.
Experimental: as §1, §2

S. aureus (ATCC 33591) = experiment: Resistance development study, serial passage at sub MIC; format: cell-based, Staphylococcus aureus; conditions: 17 serial passages at sub MIC
Experimental: FIG. 5: Illustration of resistance development study in S. aureus (ATCC 33591) after 17 serial passages with sub MIC of 1c/1d or antibiotic treatment. The fold change in MIC is the ratio of the MIC after 17 passages relative to that MIC observed before first passage.
To determine potential of active peptidomimetics against resistance development, in vitro serial passage method at sub inhibitory concentration was done. Briefly, bacterial suspension (100 μL) from duplicate wells at the concentration of sub-MIC was used to inoculate fresh culture. The culture was grown to obtain approximately 10^5 CFU/mL for the next experiment. These bacterial suspensions were then incubated with desired concentration of antibacterial agents for 18 h to determine new MIC. The same sub culturing protocol was used for next 16 passages and MIC was determined using OD630 nm as described previously in the text [Chem. Biol., 20:1286-1295, 2013.]

[7] = system: Enterococcus faecalis (ATCC 7080); experiment: MIC, serial broth dilution; format: cell-based; conditions: MHB, 18 h, 37° C.
Experimental: as §1, §2

[8] = system: Gram-negative bacterial strains; experiment: Antibacterial activity; format: cell-based
Experimental: as §2

Staphylococcus species = experiment: Antibacterial activity; format: cell-based
Experimental: as §2

Row | Compound | MIC S. aureus (ATCC 29213) (S. aureus (ATCC 29213)) | MIC MRSA (ATCC 33591) [1] | MIC S. epidermidis (ATCC 12228) [2] | MIC MRSE (ATCC 51625) [3] | MIC E. coli. (ATCC 11775) [4] | % H, percentage hemolysis of human RBCs [5] | antibacterial activity (all the tested strains) | change in relative fluorescence unit (RFU), membrane depolarization (MRSA) | MIC A. baumannii (ATCC 19606) [6] | increase in MIC after 17 passages (S. aureus (ATCC 33591)) | MIC E. facaelis (ATCC 7080) [7] | growth inhibition of Gram-negative bacterial strains [8] | activity against Staphylococcus species (Staphylococcus species)
1 | NCCCN(CCCCN(CCCN)C(=O)C(N)Cc1c[nH]c2ccccc12)C(=O)C(N)Cc1c[nH]c2ccccc12 (stereo not shown) [2a] | >0.4544 µg/mL | >227.2 µg/mL | >454.4 µg/mL | 0.2272 µg/mL (≈ 0.395 µM) | >454.4 | 0% | poor activity | only minor increase | – | – | – | – | –
2 | NCCCN(CCCCN(CCCNC(=O)C=Cc1ccc(O)c(O)c1)C(=O)C(N)Cc1c[nH]c2ccccc12)C(=O)C(N)Cc1c[nH]c2ccccc12 (stereo not shown) [2b] | >0.4544 µg/mL | 454.4 µg/mL (≈ 617 µM) | – | – | >454.4 | 5% | poor activity | – | – | – | – | – | –
3 | NCCCN(CCCCN(CCCNC(=O)Cc1ccc(C(F)(F)F)cc1)C(=O)C(N)Cc1c[nH]c2ccccc12)C(=O)C(N)Cc1c[nH]c2ccccc12 (stereo not shown) [2c] | 0.0142 µg/mL (≈ 0.0187 µM) | 28.4 µg/mL (≈ 37.3 µM) | 7.1 µg/mL (≈ 9.33 µM) | 0.0142 µg/mL (≈ 0.0187 µM) | 113.6 | 1% | moderate activity | only marginal changes in RFU | 0.1136 µg/mL (≈ 0.149 µM) | – | – | – | –
4 | O=C(O)c1cn(C2CC2)c2cc(N3CCNCC3)c(F)cc2c1=O [ciprofloxacin, reference compound] | – | – | – | – | – | – | – | – | – | 256 fold | – | – | –
5 | polymyxin B [PMB, reference compound] | 0.0142 µg/mL | 28.4 µg/mL | 7.1 µg/mL | 0.0284 µg/mL | 0.4 | – | – | – | – | – | 0.1136 µg/mL | excellent growth inhibition | relatively poor activity
